In publication PMC9829398 (Plant Biotechnology Journal, 2022):
“Also recorded” adds a separate entry of the source.

Legend:
THE1‐CD = test: THE1-CD kinase activity (autophosphorylation); type: biochemical, Arabidopsis thaliana; conditions: 5 μM
Ralstonia solanacearum [1] = type: in vivo, tobacco; conditions: roots pretreated twice with 3 mL of 5 μM
Ralstonia solanacearum [2] = type: in vivo, tomato; conditions: roots pretreated twice with 3 mL of 5 μM
tobacco roots = test: RNA-seq of tobacco roots (DEGs, GO and KEGG classification and enrichment); type: in vivo
FRK1 = conditions: 5 μM for 24 h, confocal microscopy
PER5 = conditions: 5 μM for 24 h, confocal microscopy
FER‐CD = FER‐CD (Arabidopsis thaliana, UniProt Q9SCZ4); test: biochemical
FER‐CD, sequence (Q9SCZ4 469-895): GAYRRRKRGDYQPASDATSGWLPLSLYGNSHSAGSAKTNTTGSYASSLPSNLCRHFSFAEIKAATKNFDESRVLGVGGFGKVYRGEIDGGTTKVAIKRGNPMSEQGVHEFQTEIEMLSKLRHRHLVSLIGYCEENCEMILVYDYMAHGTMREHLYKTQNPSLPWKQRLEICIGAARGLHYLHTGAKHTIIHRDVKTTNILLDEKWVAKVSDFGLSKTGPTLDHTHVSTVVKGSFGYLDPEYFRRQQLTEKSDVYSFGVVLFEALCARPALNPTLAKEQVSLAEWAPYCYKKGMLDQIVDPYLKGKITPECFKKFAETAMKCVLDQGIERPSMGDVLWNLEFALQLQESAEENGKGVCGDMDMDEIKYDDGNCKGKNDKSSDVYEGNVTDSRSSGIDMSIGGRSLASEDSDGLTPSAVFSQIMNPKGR

[3] = tested on: Arabidopsis Col‐0 and fer‐4 seedlings; test: Growth of Arabidopsis seedlings (root length, shoot fresh weight); conditions: 5 μM for 3 days, vs ddH2O (mock) and lapatinib
[4] = KEGG ko00040 Pentose and glucuronate interconversions
[5] = KEGG ko00052 Galactose metabolism
[6] = KEGG ko00062 Fatty acid elongation
[7] = KEGG ko00071 Fatty acid degradation
[8] = KEGG ko00073 Cutin, suberine and wax biosynthesis
[9] = KEGG ko00100 Steroid biosynthesis
[10] = KEGG ko00250 Alanine, aspartate and glutamate metabolism
[11] = KEGG ko00270 Cysteine and methionine metabolism
[12] = KEGG ko00290 Valine, leucine and isoleucine biosynthesis
[13] = KEGG ko00330 Arginine and proline metabolism
[14] = KEGG ko00350 Tyrosine metabolism
[15] = KEGG ko00360 Phenylalanine metabolism
[16] = KEGG ko00410 beta-Alanine metabolism
[17] = KEGG ko00430 Taurine and hypotaurine metabolism
[18] = KEGG ko00460 Cyanoamino acid metabolism
[19] = KEGG ko00480 Glutathione metabolism
[20] = KEGG ko00500 Starch and sucrose metabolism
[21] = KEGG ko00511 Other glycan degradation
[22] = KEGG ko00520 Amino sugar and nucleotide sugar metabolism
[23] = KEGG ko00531 Glycosaminoglycan degradation
[24] = KEGG ko00561 Glycerolipid metabolism
[25] = KEGG ko00564 Glycerophospholipid metabolism
[26] = KEGG ko00590 Arachidonic acid metabolism
[27] = KEGG ko00591 Linoleic acid metabolism
[28] = KEGG ko00592 alpha-Linolenic acid metabolism
[29] = KEGG ko00603 Glycosphingolipid biosynthesis - globo series
[30] = KEGG ko00604 Glycosphingolipid biosynthesis - ganglio series
[31] = KEGG ko00650 Butanoate metabolism
[32] = KEGG ko00730 Thiamine metabolism
[33] = KEGG ko00760 Nicotinate and nicotinamide metabolism
[34] = KEGG ko00770 Pantothenate and CoA biosynthesis
[35] = KEGG ko00904 Diterpenoid biosynthesis
[36] = KEGG ko00905 Brassinosteroid biosynthesis
[37] = KEGG ko00906 Carotenoid biosynthesis
[38] = KEGG ko00908 Zeatin biosynthesis
[39] = KEGG ko00909 Sesquiterpenoid and triterpenoid biosynthesis
[40] = KEGG ko00910 Nitrogen metabolism
[41] = KEGG ko00940 Phenylpropanoid biosynthesis
[42] = KEGG ko00941 Flavonoid biosynthesis
[43] = KEGG ko00950 Isoquinoline alkaloid biosynthesis
[44] = KEGG ko00960 Tropane, piperidine and pyridine alkaloid biosynthesis
[45] = KEGG ko00980 Metabolism of xenobiotics by cytochrome P450
[46] = KEGG ko00982 Drug metabolism - cytochrome P450
[47] = KEGG ko01040 Biosynthesis of unsaturated fatty acids
[48] = KEGG ko03320 PPAR signaling pathway
[49] = KEGG ko04010 MAPK signaling pathway
[50] = KEGG ko04011 MAPK signaling pathway - yeast
[51] = KEGG ko04020 Calcium signaling pathway
[52] = KEGG ko04022 cGMP-PKG signaling pathway
[53] = KEGG ko04075 Plant hormone signal transduction
[54] = KEGG ko04140 Regulation of autophagy
[55] = KEGG ko04211 Longevity regulating pathway
[56] = KEGG ko04212 Longevity regulating pathway - worm
[57] = KEGG ko04370 VEGF signaling pathway
[58] = KEGG ko04380 Osteoclast differentiation
[59] = KEGG ko04614 Renin-angiotensin system
[60] = KEGG ko04626 Plant-pathogen interaction
[61] = KEGG ko04650 Natural killer cell mediated cytotoxicity
[62] = KEGG ko04660 T cell receptor signaling pathway
[63] = KEGG ko04662 B cell receptor signaling pathway
[64] = KEGG ko04712 Circadian rhythm - plant
[65] = KEGG ko04720 Long-term potentiation
[66] = KEGG ko04723 Retrograde endocannabinoid signaling
[67] = KEGG ko04724 Glutamatergic synapse
[68] = KEGG ko04810 Regulation of actin cytoskeleton
[69] = KEGG ko04920 Adipocytokine signaling pathway
[70] = KEGG ko04921 Oxytocin signaling pathway
[71] = KEGG ko04922 Glucagon signaling pathway
[72] = KEGG ko04974 Protein digestion and absorption
[73] = KEGG ko04975 Fat digestion and absorption
[74] = tobacco roots, 5 μM irrigated twice, coregulated genes, vs DMSO

SMILES: O=C(O)c1cc(N(Cc2ccccc2O)Cc2cc(O)ccc2O)ccc1O [Lavendustin A]
- Inhibition rate of THE1-CD kinase activity (THE1‐CD): lower than 55%
- Control of tobacco bacterial wilt (Ralstonia solanacearum [1]): alleviated tobacco bacterial wilt; also recorded: alleviated soil‐borne diseases
- Control of tomato bacterial wilt (Ralstonia solanacearum [2]): best control effect; also recorded: alleviated soil‐borne diseases
- Enrichment_score (tobacco roots; [4]): 1.762
- ListHits (tobacco roots; [4]): 11
- Enrichment_score (tobacco roots; [5]): 3.118
- ListHits (tobacco roots; [5]): 9
- Enrichment_score (tobacco roots; [6]): 4.058
- ListHits (tobacco roots; [6]): 8
- Enrichment_score (tobacco roots; [7]): 0.9908
- ListHits (tobacco roots; [7]): 2
- Enrichment_score (tobacco roots; [8]): 6.683
- ListHits (tobacco roots; [8]): 16
- Enrichment_score (tobacco roots; [9]): 3.5933
- ListHits (tobacco roots; [9]): 7
- Enrichment_score (tobacco roots; [10]): 2.602
- ListHits (tobacco roots; [10]): 8
- Enrichment_score (tobacco roots; [11]): 1.358
- ListHits (tobacco roots; [11]): 8
- Enrichment_score (tobacco roots; [12]): 1.495
- ListHits (tobacco roots; [12]): 2
- Enrichment_score (tobacco roots; [13]): 2.996
- ListHits (tobacco roots; [13]): 9
- Enrichment_score (tobacco roots; [14]): 1.721
- ListHits (tobacco roots; [14]): 4
- Enrichment_score (tobacco roots; [15]): 3.551
- ListHits (tobacco roots; [15]): 8
- Enrichment_score (tobacco roots; [16]): 1.826
- ListHits (tobacco roots; [16]): 6
- Enrichment_score (tobacco roots; [17]): 1.704
- ListHits (tobacco roots; [17]): 1
- Enrichment_score (tobacco roots; [18]): 2.209
- ListHits (tobacco roots; [18]): 7
- Enrichment_score (tobacco roots; [19]): 1.785
- ListHits (tobacco roots; [19]): 8
- Enrichment_score (tobacco roots; [20]): 2.489
- ListHits (tobacco roots; [20]): 34
- Enrichment_score (tobacco roots; [21]): 1.253
- ListHits (tobacco roots; [21]): 1
- Enrichment_score (tobacco roots; [22]): 1.791
- ListHits (tobacco roots; [22]): 14
- Enrichment_score (tobacco roots; [23]): 1.152
- ListHits (tobacco roots; [23]): 1
- Enrichment_score (tobacco roots; [24]): 2.272
- ListHits (tobacco roots; [24]): 8
- Enrichment_score (tobacco roots; [25]): 1.826
- ListHits (tobacco roots; [25]): 9
- Enrichment_score (tobacco roots; [26]): 1.2911
- ListHits (tobacco roots; [26]): 1
- Enrichment_score (tobacco roots; [27]): 6.087
- ListHits (tobacco roots; [27]): 6
- Enrichment_score (tobacco roots; [28]): 4.111
- ListHits (tobacco roots; [28]): 11
- Enrichment_score (tobacco roots; [29]): 4.485
- ListHits (tobacco roots; [29]): 2
- Enrichment_score (tobacco roots; [30]): 4.734
- ListHits (tobacco roots; [30]): 1
- Enrichment_score (tobacco roots; [31]): 1.671
- ListHits (tobacco roots; [31]): 2
- Enrichment_score (tobacco roots; [32]): 1.522
- ListHits (tobacco roots; [32]): 1
- Enrichment_score (tobacco roots; [33]): 4.438
- ListHits (tobacco roots; [33]): 5
- Enrichment_score (tobacco roots; [34]): 1.397
- ListHits (tobacco roots; [34]): 2
- Enrichment_score (tobacco roots; [35]): 1.0025
- ListHits (tobacco roots; [35]): 2
- Enrichment_score (tobacco roots; [36]): 2.84
- ListHits (tobacco roots; [36]): 2
- Enrichment_score (tobacco roots; [37]): 1.079
- ListHits (tobacco roots; [37]): 2
- Enrichment_score (tobacco roots; [38]): 1.973
- ListHits (tobacco roots; [38]): 5
- Enrichment_score (tobacco roots; [39]): 1.739
- ListHits (tobacco roots; [39]): 2
- Enrichment_score (tobacco roots; [40]): 6.015
- ListHits (tobacco roots; [40]): 12
- Enrichment_score (tobacco roots; [41]): 5.314
- ListHits (tobacco roots; [41]): 58
- Enrichment_score (tobacco roots; [42]): 1.173
- ListHits (tobacco roots; [42]): 3
- Enrichment_score (tobacco roots; [43]): 2.794
- ListHits (tobacco roots; [43]): 4
- Enrichment_score (tobacco roots; [44]): 4.058
- ListHits (tobacco roots; [44]): 6
- Enrichment_score (tobacco roots; [45]): 2.166
- ListHits (tobacco roots; [45]): 6
- Enrichment_score (tobacco roots; [46]): 2.749
- ListHits (tobacco roots; [46]): 8
- Enrichment_score (tobacco roots; [47]): 1.121
- ListHits (tobacco roots; [47]): 2
- Enrichment_score (tobacco roots; KEGG ko02010 ABC transporters): 2.282
- ListHits (tobacco roots; KEGG ko02010 ABC transporters): 3
- Enrichment_score (tobacco roots; [48]): 2.72
- ListHits (tobacco roots; [48]): 3
- Enrichment_score (tobacco roots; [49]): 1.195
- ListHits (tobacco roots; [49]): 3
- Enrichment_score (tobacco roots; [50]): 1.3634
- ListHits (tobacco roots; [50]): 4
- Enrichment_score (tobacco roots; [51]): 1.535
- ListHits (tobacco roots; [51]): 4
- Enrichment_score (tobacco roots; [52]): 1.209
- ListHits (tobacco roots; [52]): 4
- Enrichment_score (tobacco roots; [53]): 1.797
- ListHits (tobacco roots; [53]): 28
- Enrichment_score (tobacco roots; [54]): 1.598
- ListHits (tobacco roots; [54]): 3
- Enrichment_score (tobacco roots; KEGG ko04146 Peroxisome): 1.462
- ListHits (tobacco roots; KEGG ko04146 Peroxisome): 7
- Enrichment_score (tobacco roots; [55]): 1.677
- ListHits (tobacco roots; [55]): 5
- Enrichment_score (tobacco roots; [56]): 1.175
- ListHits (tobacco roots; [56]): 4
- Enrichment_score (tobacco roots; KEGG ko04360 Axon guidance): 2.905
- ListHits (tobacco roots; KEGG ko04360 Axon guidance): 6
- Enrichment_score (tobacco roots; [57]): 2.242
- ListHits (tobacco roots; [57]): 3
- Enrichment_score (tobacco roots; [58]): 2.242
- ListHits (tobacco roots; [58]): 3
- Enrichment_score (tobacco roots; [59]): 9.13
- ListHits (tobacco roots; [59]): 3
- Enrichment_score (tobacco roots; [60]): 1.285
- ListHits (tobacco roots; [60]): 13
- Enrichment_score (tobacco roots; [61]): 2.412
- ListHits (tobacco roots; [61]): 3
- Enrichment_score (tobacco roots; [62]): 2.905
- ListHits (tobacco roots; [62]): 3
- Enrichment_score (tobacco roots; [63]): 2.204
- ListHits (tobacco roots; [63]): 3
- Enrichment_score (tobacco roots; [64]): 1.266
- ListHits (tobacco roots; [64]): 3
- Enrichment_score (tobacco roots; [65]): 1.66
- ListHits (tobacco roots; [65]): 3
- Enrichment_score (tobacco roots; [66]): 1.014
- ListHits (tobacco roots; [66]): 1
- Enrichment_score (tobacco roots; [67]): 1.982
- ListHits (tobacco roots; [67]): 4
- Enrichment_score (tobacco roots; KEGG ko04727 GABAergic synapse): 1.8
- ListHits (tobacco roots; KEGG ko04727 GABAergic synapse): 3
- Enrichment_score (tobacco roots; [68]): 1.244
- ListHits (tobacco roots; [68]): 4
- Enrichment_score (tobacco roots; [69]): 3.4085
- ListHits (tobacco roots; [69]): 6
- Enrichment_score (tobacco roots; [70]): 1.746
- ListHits (tobacco roots; [70]): 5
- Enrichment_score (tobacco roots; [71]): 1.2104
- ListHits (tobacco roots; [71]): 5
- Enrichment_score (tobacco roots; KEGG ko04924 Renin secretion): 2.282
- ListHits (tobacco roots; KEGG ko04924 Renin secretion): 3
- Enrichment_score (tobacco roots; [72]): 11.3617
- ListHits (tobacco roots; [72]): 4
- Enrichment_score (tobacco roots; [73]): 3.551
- ListHits (tobacco roots; [73]): 1
- Enrichment_score (tobacco roots; KEGG ko04976 Bile secretion): 2.324
- ListHits (tobacco roots; KEGG ko04976 Bile secretion): 3
- Expression levels of growth-related genes in tobacco roots (tobacco roots; RNA-seq, GO growth, vs DMSO): differentially elevated the expression levels of most growth‐related genes
- Expression levels of RBOHs, MYB44, TGA2, WRKY19, EFR, FLS2, PR1 and PDF1.4 in tobacco roots (tobacco roots; RNA-seq, vs DMSO): significantly increased the expression levels
- Antioxidant genes (GO antioxidant activity) up-regulated (tobacco roots; [74]): 60 of 61
- Immune genes (GO immune system process) up-regulated (tobacco roots; [74]): 70 of 82
- Environmental adaptation-related genes (KEGG) up-regulated (tobacco roots; tobacco roots, coregulated genes, vs DMSO): 22 of 29
- Expression of FRK1 in roots (FRK1): did not affect the expression levels
- Expression of PER5 in roots (PER5): did not affect the expression levels
- Kd (FER‐CD): 2.69 µM
- Growth of roots and shoots of Arabidopsis Col-0 seedlings [3]: significantly promoted root and shoot growth
